ChEMBL document CHEMBL1201862, “PubChem BioAssay data set” (2004)
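Exposure lasted 48 hours, with cells grown in 96-well plates and compounds tested at five concentrations. GI50 marks 50% less growth.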 Calls of active or inactive are those of the source. Cut-off read from the data, not from the text of the source: active = GI50 up to about 1.1 µM and inactive = higher.

Tests used:
Assay in all cases: NCI tumour cell line growth inhibition, 48 h
[1] = test system: 786-0
[2] = test system: A498
[3] = test system: A549
[4] = test system: ACHN
[5] = test system: CAKI-1
[6] = test system: CCRF-CEM
[7] = test system: DU-145
[8] = test system: EKVX
[9] = test system: HCC 2998
[10] = test system: HCT-116
[11] = test system: HCT-15
[12] = test system: HL-60
[13] = test system: HOP-62
[14] = test system: HOP-92
[15] = test system: HT-29
[16] = test system: Hs-578T
[17] = test system: IGROV-1
[18] = test system: K562
[19] = test system: LOX IMVI
[20] = test system: M14
[21] = test system: MCF7
[22] = test system: MDA-MB-231
[23] = test system: MDA-MB-435
[24] = test system: MDA-N
[25] = test system: MOLT-4
[26] = test system: Malme-3M
[27] = test system: NCI-H23
[28] = test system: NCI-H460
[29] = test system: NCI-H522
[30] = test system: NCI/ADR-RES
[31] = test system: OVCAR-3
[32] = test system: OVCAR-4
[33] = test system: OVCAR-5
[34] = test system: OVCAR-8
[35] = test system: PC-3
[36] = test system: RPMI-8226
[37] = test system: RXF 393
[38] = test system: SF-268
[39] = test system: SF-295
[40] = test system: SF-539
[41] = test system: SK-MEL-28
[42] = test system: SK-MEL-2
[43] = test system: SK-MEL-5
[44] = test system: SK-OV-3
[45] = test system: SNB-19
[46] = test system: SNB-75
[47] = test system: SR
[48] = test system: SW-620
[49] = test system: T47D
[50] = test system: TK-10
[51] = test system: U-251
[52] = test system: UACC-257
[53] = test system: UO-31

O=C1c2cc3c(cc2CC12Cc1cc4c(cc1C2=O)CCC4)CCCC3 (stereo not drawn)
GI50 [1]: 76 µM (inactive) | GI50 [2]: > 100 µM (inactive) | GI50 [3]: > 100 µM (inactive) | GI50 [4]: > 100 µM (inactive) | GI50 [5]: > 100 µM (inactive) | GI50 [6]: > 100 µM (inactive) | GI50 [7]: > 100 µM (inactive) | GI50 [8]: 95.1 µM (inactive) | GI50 [9]: > 100 µM (inactive) | GI50 [10]: > 100 µM (inactive) | GI50 [11]: > 100 µM | GI50 [12]: > 100 µM (inactive) | GI50 [13]: > 100 µM (inactive) | GI50 [14]: > 100 µM (inactive) | GI50 [15]: > 100 µM (inactive) | GI50 [16]: > 100 µM (inactive) | GI50 [17]: > 100 µM (inactive) | GI50 [18]: > 100 µM (inactive) | GI50 [19]: > 100 µM (inactive) | GI50 [20]: > 100 µM (inactive) | GI50 [21]: > 100 µM (inactive) | GI50 [22]: > 100 µM (inactive) | GI50 [23]: > 100 µM (inactive) | GI50 [24]: > 100 µM (inactive) | GI50 [25]: > 100 µM (inactive) | GI50 [26]: 59.4 µM (inactive) | GI50 [27]: > 100 µM (inactive) | GI50 [28]: > 100 µM (inactive) | GI50 [29]: > 100 µM (inactive) | GI50 [30]: > 100 µM (inactive) | GI50 [31]: > 100 µM (inactive) | GI50 [32]: > 100 µM (inactive) | GI50 [33]: > 100 µM (inactive) | GI50 [34]: > 100 µM (inactive) | GI50 [35]: > 100 µM (inactive) | GI50 [36]: > 100 µM (inactive) | GI50 [37]: > 100 µM (inactive) | GI50 [38]: > 100 µM (inactive) | GI50 [39]: > 100 µM (inactive) | GI50 [40]: > 100 µM (inactive) | GI50 [41]: > 100 µM (inactive) | GI50 [42]: > 100 µM (inactive) | GI50 [43]: > 100 µM (inactive) | GI50 [44]: > 100 µM (inactive) | GI50 [45]: > 100 µM (inactive) | GI50 [46]: > 100 µM (inactive) | GI50 [47]: > 100 µM (inactive) | GI50 [48]: > 100 µM (inactive) | GI50 [49]: > 100 µM (inactive) | GI50 [50]: > 100 µM (inactive) | GI50 [51]: 89.1 µM (inactive) | GI50 [52]: > 100 µM (inactive) | GI50 [53]: > 100 µM (inactive)
